Data published in patent US20080145375A1, “Vaccination” (Glaxo Group Limited, priority 2003, published 2008).

Experiments:
[1] = tested on: C56BI/6 mice immunised with p7313OVAcyt; test: ELISPOT after primary PMID immunisation with p7313OVAcyt; format: in vivo, mouse; conditions: delivered singly with p7313 OVAcyt; Day 7 post primary immunisation; FIG. 8
Procedure: (§1) Plasmid DNA was precipitated onto 2 μm diameter gold beads using calcium chloride and spermidine. Equal amounts of plasmids encoding antigen (p7313OVAcyt, p7313RNG, pVAC7VNTRMuc1, pVAC7VNTRMuc1-PADRE or pVAC7VNTRMuc1-HepB) and p7313GMCSF plasmids were mixed and co-precipitated so that all beads were coated with a mixture of the 2 plasmids ensuring delivery of both plasmids to the same cell. Unless otherwise stated both the antigen and GMCSF were loaded at 0.5 ug/cartridge. Where lower doses of antigen were used the GMCSF loading remained at 0.5 ug and the total DNA on the cartridge was adjusted to 1 ug using p7313empty or pVACempty plasmids. Loaded beads were coated onto Tefzel tubing as described in, for example, Eisenbraum, et al. 1993. DNA Cell Biol. 12:791-797; Pertmer et al, 1996 J. Virol. 70:6119-6125). Particle bombardment was performed using the Accell gene delivery (PCT WO 95/19799; incorporated herein by reference). Female C56BI/6 mice were immunised with 2 administrations of plasmid at each time point as detailed in the results section, one on each side of the abdomen after shaving. […]
(§2) Cells were removed from the plates by washing once with water (with 1 minute soak to ensure lysis of cells) and three times with PBS. […] Spots were enumerated using an image analysis system devised by Brian Hayes, Asthma Cell Biology unit, GSK or the AID Elispot reader (Cadama Biomedical, UK). […]

[2] = tested on: mice immunised with pVAC7VNTR muc1; test: Elispot of Muc1 CD4 responses after immunisation with pVAC7VNTR muc1; format: in vivo, mouse; conditions: immunised days 0 and 21; day 7 post boost; compared to pVAC 7VNTRMuc1 alone; FIG. 12
Procedure: For OVA assays peptide SIINFEKL, a dominant CD8 peptide of OVA, was used in assays at a final concentration of 50 nM to measure CD8 responses and peptide […] was used at a final concentration of 10 μM to measure CD4 responses. For ICS assays Ovalbumin protein was also used to measure CD4 responses at 1 mg/ml. For ELISPOT to detect responses to p7313RNG peptide the CD8 peptide AMQMLKETI was used for stimulation. For detecting responses to Muc1, CD4 peptides […] and […] were used at 10 uM, and CD8 peptide SAPDNRPAL was used at 10 nM. The 9-mer peptides used to follow CD8 responses to Gag and RT in mice were […] (Gag CD8) and YYPDSKDLI (RT CD8) respectively, and CD4 responses to Gag and RT were followed using […] (Gag CD4) and […] (RT CD4) respectively. Peptide […] (Nef 218) was also tested. These peptides were tested at a final concentration of 10 μM. The peptides were obtained from Genemed Synthesis, South San Francisco.
Experiments were carried out to determine the effect of GMCSF and Imiquimod treatment on responses to pVAC7VNTR Muc1. Mice were immunised at days 0 and 21 with pVAC7VNTR muc1. This was delivered alone, co-delivered with p7313GMCSF, or with p7313GMCSF and Imiquimod application at 24 hours post immunisation. Spleens were harvested at day 7 post boost and analysed by Elispot following overnight stimulation with Muc1 CD4 peptides.

RIP OVAlo mice = test: Breaking tolerance in RIP OVAlo mice; format: in vivo, mouse; conditions: four immunisations at 3 weeks intervals; SIINFEKL restimulation
Description: RIP OVAlo mice were used to test the potential for tolerance breaking of the GMCSF+Imiquimod combination (FIG. 20). RIP OVAlo mice express ovalbumin (OVA) on the insulin producing beta cells of the pancreas and are therefore tolerant to this molecule. Disruption of this tolerance results in autoimmune destruction of the beta cells leading to diabetes which can be easily monitored by measurement of glycosuria and blood glucose level. RIPova lo and C57/BL6 mice (wt control group) received four immunisations with empty vector or OVAcyt (using PMID), ±GM-CSF (using PMID), and ±Imiquimod. Immunisations were given at 3 weeks intervals. Imiquimod was applied topically on the site of immunisation 24 h after PMID. 7 Days after the last immunisation splenocytes and serum samples were taken. […] The functional test for tolerance breaking in this model is development of diabetes. This is measured by urine glucose levels.

[3] = tested on: TLRs 1-9 mRNA in monocyte derived DC; test: Taqman analysis of TLR expression on IFNγ treated DC; format: cell-based, human; conditions: DC treated with IFNγ for 24 hours; 3 healthy donors; FIG. 6
Procedure: Monocytes were isolated from the PBMC of 3 healthy donors and cultured with IL-4 & GM-CSF for 7 days to induce differentiation to immature DC. The DC were then treated with IFNγ for 24 hours. mRNA expression of TLRs 1-9 was then measured by Taqman. In contrast to published reports we have shown that low levels of TLR7 are constitutively expressed on monocyte derived DC. […] The increase in TLR7 expression at 24 hours post stimulation in vitro provides an explanation for the results in FIG. 5 showing the good effect of Imiquimod at 24 hours post immunisation.

[4] = tested on: C57/bl6 mice immunised with OVAcyt; test: In vivo cytotoxicity assay (SIINFEKL pulsed CSFE labelled splenocytes); set-up: species or system mouse; conditions: 3 mice per group; Day 7, 14, 21 and 42 post immunisation; FIG. 18
Procedure: The effect of GMCSF and Imiquimod on cytotoxic responses to p7313OVA after primary immunisation was also measured by in vivo cytotoxicity assays (FIG. 18). C57/bl6 mice were immunised with either OVAcyt or OVAcyt+GMCSF by PMID. At 24 hours post immunisation imiquimod was applied on the immunisation site. At Day 7, 14, 21 and 42 post immunisation mice were injected i.v. with CSFE labelled splenocytes consisting of [sequence] peptide pulsed and unpulsed in equal numbers. After 2 hours the blood was analysed by flow cytometry and the ratio of pulsed to unpulsed cells remaining was calculated to give a numerical value of cytotoxicity.

[5] = tested on: mice immunised with p731-RNG (GW825780X); test: IFNγ Elispot after PMID immunisation with p731-RNG, imiquimod at 0 h or 24 h; format: in vivo, mouse; conditions: application 24 h post immunisation; 2×0.5 ug p731-RNG by PMID; spleens day 14; GAG CD8 peptide AMQMLKETI; FIG. 5
Procedure: as §1, with “reference).” for “reference). Female C56BI/6 mice were immunised with 2 administrations of plasmid at each time point as detailed in the results section, one on each side of the abdomen after shaving.”
as §2
Spleens were harvested at day 14 post immunisation and the cellular responses analysed by IFNγ Elispot following stimulation with a GAG balb/c CD8 9mer peptide: AMQMLKETI.

Row | Compound | adjuvant effect in Elispot assays [1] | Muc1 CD4 responses (Elispot) [2] | CD8 responses (IFNγ and IL2 production in CD8+ T cells) (RIP OVAlo mice) | mRNA expression of TLR2 [3] | mRNA expression of TLR7 and TLR8 [3] | in vivo cytotoxicity [4] | adjuvant effect on cellular responses, IFNγ Elispot [5]
1 | GMCSF | adjuvant effects | improved CD4 responses | there are responses |  |  |  | 
2 | IFNγ: interferon-gamma used to treat monocyte derived DC for 24 hours |  |  |  | upregulated but to a lesser extent | expression of TLR8 and increased levels of expression of TLR7 were found in all 3 donors |  | 
3 | CC(C)Cn1cnc2c(N)nc3ccccc3c21 [Imiquimod, imiquimod] | adjuvant effects | improved CD4 responses | there are responses |  |  | clear benefit over OVA alone | good adjuvant effect
